Assays:
[1] = target: T1, ECE1 (Homo sapiens, UniProt P42892); experiment: QFS assay of Aβ-degrading enzymes: ECE1 (Example 6); type: biochemical
T1 construct: purchased R & D systems 1784-ZN-010
T1 sequence (P42892 1-770): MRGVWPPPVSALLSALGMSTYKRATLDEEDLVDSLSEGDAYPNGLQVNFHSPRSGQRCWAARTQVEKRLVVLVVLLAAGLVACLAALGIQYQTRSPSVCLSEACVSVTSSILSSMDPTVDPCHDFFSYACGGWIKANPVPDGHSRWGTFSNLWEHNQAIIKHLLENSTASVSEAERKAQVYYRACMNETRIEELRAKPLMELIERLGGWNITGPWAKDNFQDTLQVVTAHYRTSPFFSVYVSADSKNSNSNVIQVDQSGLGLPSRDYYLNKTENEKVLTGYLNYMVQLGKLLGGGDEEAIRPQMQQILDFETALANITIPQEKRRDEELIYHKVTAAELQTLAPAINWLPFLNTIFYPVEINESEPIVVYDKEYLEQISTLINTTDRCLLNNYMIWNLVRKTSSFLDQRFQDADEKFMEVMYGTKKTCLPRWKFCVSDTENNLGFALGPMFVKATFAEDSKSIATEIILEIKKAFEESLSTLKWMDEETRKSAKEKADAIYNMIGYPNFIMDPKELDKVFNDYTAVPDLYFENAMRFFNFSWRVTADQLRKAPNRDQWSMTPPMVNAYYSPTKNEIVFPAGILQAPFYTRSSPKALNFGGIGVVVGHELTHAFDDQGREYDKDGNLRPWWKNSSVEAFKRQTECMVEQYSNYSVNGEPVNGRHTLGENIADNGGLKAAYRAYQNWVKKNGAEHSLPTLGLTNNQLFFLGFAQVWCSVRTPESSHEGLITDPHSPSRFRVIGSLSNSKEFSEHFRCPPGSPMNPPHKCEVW
Method: Plate reader-based enzyme assays were performed using a quenched fluorescent substrate (QFS) in a 96-well format using a SpectraMAX M4 Microplate reader (Molecular Devices). The increase in fluorescence following addition of QFS (40 μM) was taken as evidence of enzyme activity. Fluorescence was monitored over 2 h at 37° C. using κEx=320 nm and λEm=405 nm. Assays were conducted in black 96-well plates. Specific enzyme activity was expressed as a rate of substrate cleavage calculated using a standard curve of 7-methoxy-coumarin-4-acetic acid.
In all plate reader-based enzyme assays using QFS, the reaction rate (μmol of substrate cleaved/min) was calculated using linear regression analysis (GraphPad Prism software version 8.01). The reaction rates calculated were used to generate the enzyme kinetic parameters Vmax and Km through non-linear regression analysis (GraphPad Prism software, version 8.01; Michaelis-Menten equation). Where indicated, enzyme activity in the presence of peptide was expressed as a % of the enzyme alone. Data were expressed as mean±SEM and statistical significance was determined using t-tests or one-way ANOVAs followed by Tukey's post-hoc test. P<0.05 was considered as statistically significant. […]
SEQ ID NO:2 was assessed in a QFS assay against enzymes NEP, ECE1, ECE2, ACE1, ACE2, IDE and MMP-2 using the method in Example 2 and the following procedure. […]

[2] = target: T2, ACE2 (Homo sapiens, UniProt Q9BYF1); experiment: Cleavage of synthetic Ang II to Ang 1-7 by ACE2, LCMS (Example 8); type: biochemical; conditions: rhACE2 0.1 ng/μL, peptide 1.7 μM, Ang II 0.02 μg/μL
T2 construct: purchased R & D systems 933-ZN-010
Method: Samples were analysed by LC-MS/MS using a quadrupole TOF mass spectrometer (MicroTOFq, Bruker Daltonics, Bremen, Germany) coupled online with a 1200 series nano-HPLC (Agilent technologies, Santa Clara, CA, USA). Samples were injected onto a zorbax 300SB reversed phase trap column with 95% solvent A (0.1% formic acid) at a flow rate of 10 μL/minute. The peptides were eluted over a 10-min gradient to 70% solvent B (80% acetonitrile, 0.1% formic acid) and separated on a 15-cm, 75-μmID zorbax 300SB nanocolumn. The eluent was nebulised and ionised using the Bruker nano-ESI source with a capillary voltage of 4500 V, dry gas at 180° C., flow rate of 5 L/minute and nebuliser gas pressure at 300 mbar. The MS acquisition was in selected ion monitoring mode after selected ion extraction of the MS spectra. Prior to analysis, the qTOF mass spectrometer was calibrated using a 1:50 dilution tuning mix (Agilent technologies, Santa Clara, CA, USA). Data from MS run were processed in Skyline version 19.1.0.193 (Uni. Of Washington, WA, USA) to perform ion chromatogram extractions and peak integrations.
rhACE2 (0.1 ng/μL) was incubated with SEQ ID NO:2 (1.7 μM) for 1 h at 37° C. Ang II (0.02 μg/μL) was then added to the reaction mixture. Aliquots of equal volume were collected at 0, 3, 6 and 24 h. […] The samples were analysed by LC-MS/MS using the method in Example 7.

T2 sequence (Q9BYF1 18-805): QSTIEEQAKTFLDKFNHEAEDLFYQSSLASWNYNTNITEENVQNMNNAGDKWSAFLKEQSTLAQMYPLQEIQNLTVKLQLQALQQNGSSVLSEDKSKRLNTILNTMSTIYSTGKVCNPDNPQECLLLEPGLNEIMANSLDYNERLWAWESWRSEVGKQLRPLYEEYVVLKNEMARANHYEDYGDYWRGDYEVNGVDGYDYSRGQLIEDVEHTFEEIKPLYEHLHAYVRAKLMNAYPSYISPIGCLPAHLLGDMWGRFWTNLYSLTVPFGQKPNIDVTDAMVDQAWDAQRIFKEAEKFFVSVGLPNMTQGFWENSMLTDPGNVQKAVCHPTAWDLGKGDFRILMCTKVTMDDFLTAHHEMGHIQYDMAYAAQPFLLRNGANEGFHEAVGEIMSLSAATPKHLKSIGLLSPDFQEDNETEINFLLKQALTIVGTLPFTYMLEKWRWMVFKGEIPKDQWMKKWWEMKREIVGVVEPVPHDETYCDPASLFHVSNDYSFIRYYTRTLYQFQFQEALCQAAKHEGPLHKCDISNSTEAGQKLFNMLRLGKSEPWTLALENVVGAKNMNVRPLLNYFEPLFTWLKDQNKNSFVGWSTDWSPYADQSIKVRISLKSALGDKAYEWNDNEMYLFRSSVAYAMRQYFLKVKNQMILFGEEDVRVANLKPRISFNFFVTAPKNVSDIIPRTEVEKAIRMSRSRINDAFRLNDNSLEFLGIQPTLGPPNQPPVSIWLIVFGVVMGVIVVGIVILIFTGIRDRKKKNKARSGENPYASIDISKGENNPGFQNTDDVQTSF

H-SLFELGKMIL-NH2 [SEQ ID NO:2, H2N-SLFELGKMIL-NH2]
ECE1 activity compared with respective enzyme alone ([1]; peptide 2 μM (FIG. 2c)): did not increase | ECE1 activity, concentration dependence ([1]; peptide 0.9-26 μM): did not affect | production of Ang 1-7 [2]: 165±12 % of ACE2 alone | ACE2-mediated breakdown of Ang II over 24 h, decrease in peak area ([2]; 24 h): 83±5 % of initial

Reference: US20240002441A1, “PEPTIDES AND USES THEREOF IN MODULATION OF AMYLOID-BETA PROTEIN DEGRADING PROTEASES” (priority 2020, published 2024)
